Experimental findings from US6589951B1, “Phthalazine derivatives as phosphodiesterase 4 inhibitors” (Zambon Group S.p.A., priority 1997, dated 2003) are described below.

The structures appear in SMILES notation.

In one assay the target is PDE 4. The assay is described as follows: PDE 4 enzyme inhibition test (SPA). Particulars: for activity on PDE 4 (in words): summary statement in description. In kind it is biochemical, human. As for the experimental part: The polymorphonucleate leukocytes (PMNs) were isolated from peripheral blood of healthy volunteers according to what described by Boyum A, Scand. J. Immunol., 1976, 5° suppl., 9). Shortly, the isolation of the PMNs was effected by Ficoll-Paque gradient centrifugation followed by sedimentation on dextrane and the erythrocyte contamination was eliminated by hypotonic lysis.
The human PMNs were resuspended in TRIS/HCl buffer (10 mM pH 7.8) containing MgCl2 (5mM), EGTA (4 mM), mercaptoethanol (5 mM), TRITON-X100 (1%), pepstatin A (1 μM), PMSF (100 μM) and leupeptin (1 μM), and homogenised by Polytron. The homogenate was centrifuged at 25,000×g for 30 minutes at 4° C. and the surnatant was used for the PDE 4 enzyme purification by ion exchange chromatography using the FPLC technique according to what described by Schudt C. et al., Naunyn-Schmidberg's Arch. Pharmacol., 1991, 334, 682. The surnatant was seeded on a UNO Q12 column (Bio-Rad) and the enzyme was eluted by sodium acetate gradient from 50mM to 1M. The fractions containing enzymatic activity were joined, dialysed against water and concentrated. The resulting PDE 4 enzyme was stored at −20° C. in the presence of ethylenglycole (30%) v/v) until use.
The enzyme activity was assessed with an Amersham kit based on the SPA technique (Scintillation Proximity Assay). The enzymatic reaction was effected in a total volume of 100 μl of TRIS/HCl buffer (50 mM, pH7.5), MgCl2 (8.3mM), EGTA (1.7 mM), cAMP (1μM) and [^3H]cAMP (˜100.000 dpm). The compounds of the invention and the reference ones were added at the wanted concentrations. As reference compounds 6,7 dimethoxy-4-(pyridin-4-ylmethyl)-2H-phthalazin-1 on (reference 1) and 6,7-dimethoxy-4-(piperidin-4-ylmethyl)-2H-phthalazin-1-one (reference 2) embraced by the general formula of the patent application EP-0 722 936 (in the name of Eisai) were used. The reaction was started by adding the enzyme (15 μg protein/ml) in 40 minutes at 30° C. and stopped with 50 μl of SPA particles suspension. The radioactivity of the particles was measured in β-emitting counter. The IC50 values were computed over 9 equidistant concentrations in logarithmic scale using a 4-parameters logistic function by a software.

For another assay, the system named is TNFα. The assay is described as follows: TNFα synthesis inhibition in LPS-stimulated human monocytes (ELISA). It counts as cell-based. The conditions noted are these: Monocyte, LPS 1 ng/ml, 16 hours. On the procedure:
The monocytes were isolated from peripheral blood of healthy volunteers according the procedure of Schreek L., J. Natl. Cancer Inst., 1964, 32, 507. The monocytes and lymphocytes population was isolated by Ficoll gradient centrifugation, and the cells diluted at a density of 2.5×10^6 cells/ml in RPMI1640 incubation containing 1% inactivated bovine fetal serum, penicillin (100 U/ml) and streptomycin (100 U/ml) were placed in 24-wells plates (1 ml/well) and left to adhere for 1 hour at 37° C. with 5% CO2. At the end of the incubation the lymphocytes not adhering were removed by aspiration and the monocytes adhered to the plate were used in the next step.
The TNFα synthesis from human monocytes was measured according to the method of Barnette M. et al., Biochemical Pharmacology, 1996, 51, 949. The monocles were incubated for 1 hour with 1 ml of RPMI1640 incubation medium (1% inactivated bovine serum, 100 U/ml penicillin and streptomycin) containing different concentrations of the products according to the present invention or the carrier only for the controls. The TNFα synthesis from monocytes was induced by adding 1ng/ml of LPS (lipopolysaccharide of E. Coli) and after 16 hours of incubation at 37° C., 5% CO2, the incubation medium was removed, and the surnatant stored at −80° C. until the measurement. The TNFα levels were determined by ELISA test with an Amersham kit. The results are set forth in Table 2 as IC50 measured with the same calculation of example 67.
On the technique in general: In an ELISA, binding on a coated surface is turned into a signal by an enzyme label.

The target of another assay is T1, PDE 3 (Homo sapiens, UniProt Q14432).
T1 construct: Human platelets were prepared from platelet rich plasma (PRP); from tissue; host or cells: human platelets (platelet rich plasma, L. Sacco Hospital, Milan)
Kind of assay: PDE 3 enzyme inhibition test (SPA). In kind it is biochemical. The conditions noted are these: at 10^-6 M; enzyme from human platelets. On the procedure: (§1) Human platelets were prepared from platelet rich plasma (PRP) obtained from the Hematological Dept. of the “L.Sacco” Hospital of Milan. The PRP was centrifuged at 2,200 rpm for 15 minutes at 4° C. and the pellet was suspended in lysis solution (15 ml; 155 mM NH4Cl, 10 mM KHCO3 and 0.1 mM Na2EDTA, pH=7.4) and incubated for 10 minutes on ice-bath to remove the erythrocyte contamination. After a centrifuging at 1,400 rpm for 10 minutes at 4° C., platelets were suspended in 10 ml of […], 5 mM KCl, 1 mM MgSO4, 10 mM glucose, 10 mM HEPES and 0.05 U/ml of hirudin (pH=7.4), and stored at −20° C. until homogenization and chromatography.
(§2) Before the chromatographic step, platelets were thawed and 50 ml of 20 mM TRIS (pH=6.5) containing 5 mM βmercapto-ethanol, 2 mM EDTA, 50mM sodium acetate and 50 μM PMSF (homogenization buffer) were added. The platelet suspension was then homogenized by a Polytron homogenizer (Polytron PT 1200) for 20 seconds. The homogenate was centrifuged at 14,500 rpm for 20 minutes at 4° C., and the supernatant was applied to a UNO Q12 column (Bio-Rad) pre-equilibrated with the PMSF. A flow rate of 4.5 ml/min was used throughout the ion exchange chromatography procedure. The column was washed with PMSF (180 ml) and PDE 3 and PDE 5 were eluted by sodium acetate linear gradient from 0.05M to 1M. The fractions containing enzymatic activity were joined, dialysed against water and concentrated 10 times by ultrafiltration. The resulting solution was stored at −20° C. in the presence of ethylenglycole (30%) v/v) until use.
(§3) The enzyme activity was assessed with an Amersham kit based on the SPA technique (Scintillation Proximity Assay). The enzymatic reaction was effected in a total volume of 100 μl of TRIS/HCl buffer (50 mM, pH7.5), MgCl2 (8.3 mM), EGTA (1.7 mM), cAMP (for PDE 3 assay) or cGMP (for PDE 5 assay) (1 μM), [^3H]cAMP or [^3H]cGMP (10 μl), and 10 μl of the compounds of the invention. The reaction was started by adding the enzyme (10 μl) incubated for 40 minutes at 30° C. and stopped by adding 50 μl of SPA beads. The radioactivity due to the particles was measured in β-emitting counter. The results are expressed as percent activity versus the control present in each test.

In a further assay the target is T2, PDE 5 (Homo sapiens, UniProt O76074).
T2 construct: Human platelets were prepared from platelet rich plasma (PRP); from tissue; host or cells: human platelets (platelet rich plasma, L. Sacco Hospital, Milan)
The assay is described as follows: PDE 5 enzyme inhibition test (SPA). In kind it is biochemical. The conditions noted are these: at 10^-6 M; enzyme from human platelets. As for the experimental part: as §1, §2, §3

[1] abbreviates: enzyme from human PMNs, 9 concentrations, 4-parameter logistic.
Where [2] appears, read: at 10^-6 M, enzyme from human PMNs.
Setting [3] is: at 10^-5 M, enzyme from human PMNs.
Setting [4] is: at 10^-8 M, enzyme from human PMNs.

T1 sequence (Q14432 whole entry): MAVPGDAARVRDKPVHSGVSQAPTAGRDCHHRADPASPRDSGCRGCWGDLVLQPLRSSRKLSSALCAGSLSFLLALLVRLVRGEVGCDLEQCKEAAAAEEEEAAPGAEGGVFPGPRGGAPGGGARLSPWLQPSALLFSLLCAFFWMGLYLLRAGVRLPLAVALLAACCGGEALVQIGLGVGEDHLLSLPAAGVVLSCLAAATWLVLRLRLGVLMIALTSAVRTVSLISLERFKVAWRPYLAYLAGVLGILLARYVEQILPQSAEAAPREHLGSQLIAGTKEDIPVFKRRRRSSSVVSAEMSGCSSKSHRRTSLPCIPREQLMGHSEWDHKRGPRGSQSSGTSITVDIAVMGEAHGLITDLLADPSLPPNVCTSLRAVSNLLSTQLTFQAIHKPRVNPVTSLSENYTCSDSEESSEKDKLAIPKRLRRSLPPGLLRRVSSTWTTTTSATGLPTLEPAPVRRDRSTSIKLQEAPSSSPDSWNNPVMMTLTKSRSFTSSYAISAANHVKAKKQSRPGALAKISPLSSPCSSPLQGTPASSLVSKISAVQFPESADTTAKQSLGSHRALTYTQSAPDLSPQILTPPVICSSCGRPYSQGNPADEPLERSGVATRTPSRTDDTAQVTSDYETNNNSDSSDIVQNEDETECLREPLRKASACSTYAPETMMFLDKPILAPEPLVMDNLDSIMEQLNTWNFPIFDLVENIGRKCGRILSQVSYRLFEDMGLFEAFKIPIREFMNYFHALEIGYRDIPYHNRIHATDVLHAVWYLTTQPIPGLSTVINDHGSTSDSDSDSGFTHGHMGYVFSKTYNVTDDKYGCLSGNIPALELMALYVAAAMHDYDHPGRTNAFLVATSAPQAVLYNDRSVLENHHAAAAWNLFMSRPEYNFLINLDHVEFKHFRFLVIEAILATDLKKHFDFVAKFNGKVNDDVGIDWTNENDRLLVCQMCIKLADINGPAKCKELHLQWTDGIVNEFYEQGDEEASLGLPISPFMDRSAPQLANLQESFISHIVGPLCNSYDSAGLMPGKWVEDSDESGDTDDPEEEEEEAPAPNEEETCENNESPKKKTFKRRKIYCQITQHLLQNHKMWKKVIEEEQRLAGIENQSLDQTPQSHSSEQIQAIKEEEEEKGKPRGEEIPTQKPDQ

In the case of `COc1cc2cnnc(Cc3c(Cl)cncc3Cl)c2cc1OC1CCCC1` [Compound 7, 7-Cyclopentyloxy-1-(3,5-dichloropyridin-4-ylmethyl)-6-methoxy-phthalazine], on PDE 4 (setting [1]), 0.186 ± 0.043 µM corresponded to half-maximal inhibition (IC50).

For the molecule `COc1ccc2c(Nc3c(Cl)cncc3Cl)nncc2c1OC1CCCC1` [Compound 4, 5-Cyclopentyloxy-1-(3,5-dichloropyridin-4-ylamino)-6-methoxy-phthalazine], the IC50 (usually the concentration at which inhibition is half-maximal) came out at 0.187 ± 0.035 µM with TNFα and 0.0589 ± 0.005 µM at PDE 4 (setting [1]). The values for the inhibition at 1 µM at PDE 3 and at PDE 5 were 8% and 19%, respectively. For the same molecule, in the assay on PDE 4 (setting [2]), the “PDE 4 % inhibition” value was determined as 73%.

Take `COc1ccc2c(Cc3c(Cl)cncc3Cl)n[n+]([O-])cc2c1OC1CCOC1` (stereo not drawn) [Compound 14]: the figures for the IC50 with TNFα and at PDE 4 (setting [1]) were 0.389 ± 0.047 µM and 0.298 ± 0.037 µM, respectively.

`COc1ccc2c(Cc3c(Cl)cncc3Cl)n[n+]([O-])cc2c1OC1CCCC1` [Compound 2, 5-Cyclopentyloxy-1-(3,5-dichloropyridin-4-ylmethyl)-6-methoxy-phthalazin-3-oxide]: the results for the IC50 in the assay with TNFα and at PDE 4 (setting [1]) were 0.139 ± 0.055 µM and 0.0424 ± 0.005 µM, respectively. Further, the values for the inhibition at 1 µM at PDE 3 and against PDE 5 were 20% and 4%, respectively. Also, the “PDE 4 % inhibition” value with PDE 4 (setting [3]) was 97%; in the assay with PDE 4 (setting [2]), 94%; in the assay on PDE 4 (setting [4]), 25%.

On to `COc1ccc2c(Cc3c(Cl)cncc3Cl)nncc2c1OC1CCOC1` (stereo not drawn) [Compound 13], for which the inhibition (usually how much of the control response was suppressed) at 1 µM against PDE 3 is 4%; against PDE 5, 2%. Further, the midpoint of inhibition against PDE 4 (setting [1]), the IC50, lay at 0.153 ± 0.085 µM.

Turning to `COc1cc2c(C)nnc(Cc3c(Cl)cncc3Cl)c2cc1OC1CCCC1` [Compound 9, 7-Cyclopentyloxy-1-(3,5-dichloro-pyridin-4-ylmethyl)-4-methyl-6-methoxy-phthalazine], the IC50 at PDE 4 (setting [1]) worked out at 0.146 ± 0.038 µM.

For `FC(F)Oc1ccc2c(Cc3c(Cl)cncc3Cl)nncc2c1OC1CCCC1` [Compound 3, 5-Cyclopentyloxy-1-(3,5-dichloropyridin-4-yl-methyl)-6-difluoromethoxy-phthalazine], the 50% inhibitory concentration (IC50) in the assay on TNFα was determined as 0.167 ± 0.079 µM; against PDE 4 (setting [1]), 0.0389 ± 0.007 µM. Besides, the inhibition at 1 µM was found to be 5% at PDE 3 and 14% against PDE 5. Also, the “PDE 4 % inhibition” value amounted to 100% with PDE 4 (setting [2]) and 34% in the assay on PDE 4 (setting [4]).

As for `COc1cc2c(CC3CCNCC3)n[nH]c(=O)c2cc1OC` [Reference 2, 6,7-dimethoxy-4-(piperidin-4yl-methyl)-2H-phthalazin-1-one, reference compound], on PDE 4 (reference compounds), the IC50 was more than 100 µM. Also, the “activity on PDE 4 (in words)” value with PDE 4 is on record as “did not show to be active”.

As to `COc1ccc2c(Cc3c(Cl)cncc3Cl)nncc2c1OC1Cc2ccccc2C1` [Compound 5, 1-(3,5-Dichloro-pyridin-4-methyl)5-(indan-2-yloxy)-6-methoxy-2H-phthalazine], the IC50 with TNFα stood at 0.252 ± 0.12 µM; against PDE 4 (setting [1]) it was 0.0295 ± 0.004 µM. In addition, the “PDE 4 % inhibition” value in the assay on PDE 4 (setting [2]) came out at 80%; in the assay with PDE 4 (setting [4]), 33%.

At PDE 4 (setting [1]), `COc1ccc2c(Cc3c(Cl)c[n+]([O-])cc3Cl)n[n+]([O-])cc2c1OC1CCOC1` (stereo not drawn) [Compound 19] returned an IC50 of 0.206 ± 0.124 µM. At PDE 5, this molecule had an inhibition at 1 µM of 8%.

With `FC(F)Oc1ccc2c(Cc3c(Cl)cncc3Cl)nncc2c1OC1CCOC1` (stereo not drawn) [Compound 15, 1-(3,5-Dichloro-pyridin-4-ylmethyl)-6-difluoromethoxy-5-(tetrahydro-furan-3-yloxy)-phthalazine], the inhibition at 1 µM is 11% against PDE 3 and 0% against PDE 5. At PDE 4 (setting [1]), this molecule had an IC50 of 0.282 ± 0.036 µM.

As to `CCc1nnc(Cc2c(Cl)cncc2Cl)c2cc(OC3CCCC3)c(OC)cc12` [Compound 10, 7-Cyclopentyloxy-1-(3,5-dichloro-pyridin-4-ylmethyl)-4-ethyl-6-methoxy-phthalazine], the IC50 worked out at 0.259 ± 0.086 µM with TNFα and 0.0749 ± 0.008 µM on PDE 4 (setting [1]). Also, the inhibition at 1 µM on PDE 3 and against PDE 5 was 20% each time. Moreover, the figures for the “PDE 4 % inhibition” value in the assay with PDE 4 (setting [3]), in the assay on PDE 4 (setting [2]) and with PDE 4 (setting [4]) were 93%, 80% and 33%, respectively.

In turn, `COc1cc2c(Cc3ccncc3)n[nH]c(=O)c2cc1OC` [Reference 1, 6,7-dimethoxy-4-(pyridin-4-yl-methyl)-2H-phthalazin-1-one, reference compound] returned an IC50 at PDE 4 (reference compounds) of more than 100 µM. In the assay with PDE 4, the “activity on PDE 4 (in words)” value is given as “did not show to be active”.

`COc1ccc2c(Cc3c(Cl)cncc3Cl)nncc2c1OCCCCCc1ccccc1` [Compound 6, 1-(3,5-Dichloro-pyridin-4-methyl)-5-(5-phenyl-pentyl-1-oxy)-6-methoxy-phthalazine]: the IC50 in the assay with TNFα worked out at 0.0835 ± 0.024 µM; against PDE 4 (setting [1]) it was 0.0568 ± 0.009 µM. The inhibition at 1 µM against PDE 3 turned out to be 25%; against PDE 5, 20%. Further, the “PDE 4 % inhibition” value in the assay on PDE 4 (setting [2]) was 79%; with PDE 4 (setting [4]), 27%.

Take `COc1ccc2c(Cc3c(Cl)cncc3Cl)nncc2c1OC1CCCC1` [Compound 1, 5-Cyclopentyloxy-1-(3,5-dichloropyridin-4-ylmethyl)-6-methoxy-phthalazine]: the IC50 stood at 0.254 ± 0.084 µM with TNFα and 0.0531 ± 0.01 µM at PDE 4 (setting [1]). Moreover, the figures for the inhibition at 1 µM against PDE 3 and against PDE 5 were 0% and 20%, respectively. Moreover, the “PDE 4 % inhibition” value is on record as 84% in the assay with PDE 4 (setting [2]) and 19% in the assay on PDE 4 (setting [4]).
